Laboratory results from US20110151469A1, “INTERFERON EPSILON (IFNE1) AS A MARKER FOR TARGETED CANCER THERAPY” (PIRAMAL LIFE SCIENCES LIMITED, priority 2008, published 2011).
“Also recorded” adds a separate entry of the source.

How the values were obtained:
[1] = system: IFNE1 mRNA in HCT116 cells; test: QRT-PCR of IFNE1 transcript level in HCT116 cells treated with CDK and non-CDK inhibitors; format: cell-based, human; conditions: 6 hours, P276-00 250 nM, Flavopiridol 200 nM, Fascaplysin 500 nM, Roscovitine 20 μM, Olomoucine 180 μM, DRB 50 μM, 5-Fluorouracil 800 nM, Camptothecin 30 nM, Etoposide 3 μM, Vinblastin 1.5 μM, Quercitin 750 nM, Paclitaxel 600 nM, Doxorubicin 100 nM
Experimental: HCT116 cells were treated with various CDK inhibitors [P276-00 (250 nM), Flavopiridol (200 nM), Fascaplysin (500 nM), Roscovitine (20 μM), Olomoucine (180 μM), 5,6-dichloro-1-beta-D-ribofuranosylbenzimidazole (DRB, 50 μM)] and non-CDK inhibitors [5-Fluorouracil (800 nM), Camptothecin (30 nM), Etoposide (3 μM), Vinblastin (1.5 μM), Quercitin (750 nM), Paclitaxel (600 nM), Doxorubicin (100 nM)] for 6 hours. The level of IFNE1 mRNA was estimated using Real Time RT-PCR. Using Actin gene for normalization, relative IFNE1 expression level was plotted as log fold change.
To study if IFNE1 expression is a result of CDK inhibition, HCT116 cells were treated with a variety of CDK and non-CDK inhibitors and IFNE1 transcript level were measured using quantitative QRT-PCR. HCT116 cells were chosen for this assay because IFNE1 level seems to be most regulated in this cell line. The cells were treated with a variety of CDK inhibitors [P276-00 (250 nM), Flavopiridol (200 nM), Fascaplysin (500 nM), Roscovitine (20 μM), Olomoucine (180 μM), 5,6-dichloro-1-beta-D-ribofuranosylbenzimidazole (DRB) (50 μM)] and non-CDK inhibitors [5-Fluorouracil (800 nM), Camptothecin (30 nM), Etoposide (3 μM), Vinblastin (1.5 μM), Quercitin (750 nM), Paclitaxel (600 nM), Doxorubicin (100 nM)] for 6 hours and the IFNE1 transcript level were estimated. All inhibitors were purchased from Sigma and used at IC50 values described in literature.

[2] = system: IFNE1 gene in HCT116 xenografts; test: Oligonucleotide microarray expression profiling of IFNE1 in HCT116 xenografts treated with P276-00 or Flavopiridol; format: in vivo, SCID mice
Experimental: (§1) Colon carcinoma (HCT-116) cells were injected into severe combined immunodeficient (SCID) mice intraperitoneally. Xenografts were allowed to grow, typically for 7 days until the tumors reached a size of 5×5 mm before therapeutic agent administration. A total of 56 animals were used for the study. Animals that were treated with two consecutive day administrations of the agent/vehicle were considered as the acute treated group. The acute treated group of animals consisted of 8 sham treated, 10 Flavopiridol (2.5 mg/kg) treated, and P276-00 (35 mg/kg) treated mice. A similar group of animals was treated with either vehicle or agent for 6-7 days consecutively and was considered as the chronic treated group, as discussed below. The differences in the concentrations used reflect the differences in the IC50 values of the two therapeutic agents.
(§2) At the end of the acute/chronic treatments, the xenografts were excised from the animals and RNA was prepared using Trizol reagent (Sigma, USA) as per the manufacturer's protocol. Briefly, xenograft tissues were homogenized under liquid nitrogen and resuspended in Trizol ([…] tissue) followed by chloroform extraction. The RNA was precipitated in isopropanol and the pellet was washed using 70% ethanol. RNA samples thus obtained were resuspended in RNase-DNase free water. Quality and quantity of RNA was measured by spectrometry using ND-1000 spectrometer (Nanodrop, Wilmington, Del., USA).
To account for variability in gene expression in the xenografts before agent treatments, RNA samples from the respective control groups were pooled proportionally. Each of the P276/FP acute treated xenograft was, therefore, compared with pooled acute control RNA samples and the same method was adopted for the chronically treated samples. For microarray hybridization, a total of 20 μg of RNA was used for cDNA synthesis, which was indirectly labeled with Cy3 (pooled control) or Cy5 (individual treated xenograft) fluorescent dyes as described (Chinnaiyan AM et. al., Am J. Pathol. 2001 October; 159(4): 1199-209). A 23,290 oligonucleotide array (Illumina, USA) was spotted using the OmniGrid™ Genemachines. The slides were processed by standard procedures and hybridization was performed in the two-channel mode. Post hybridization, the slides were washed and scanned using GeneTAC UC-4 and images obtained were analyzed using the GenePix Pro 5.1. The median of ratios of intensities (Cy5/Cy3) obtained from the two channels was subjected to Cluster analysis and viewed using the Treeview program. Median of ratios above 2 is considered as significant upregulation of the specific gene in the drug treated xenograft and a value below 0.5 is considered as downregulation of the specific gene in the drug treated xenograft.
A total of 16 hybridizations representing 10 acute treatments (FIG. 1A) and 6 chronic treatments (FIG. 1B) were analyzed. Individual hybridizations were numbered according to acute (A) or chronic (C) treatment followed by the animal number and the respective agent used. For example, A20 (P276) identifies acute treated xenograft with P276-00 in the animal numbered 20.
The values represent the log of median of ratio for IFNE1 gene across different xenografts treated with either P276-00 or Flavopiridol. As mentioned before, a ratio value above 1 indicates a two-fold increase in the gene levels. The Cluster analysis identifies upregulation of IFNE1 consistently across both acute (Table 1A) and chronic (Table 1B) treatments of HCT116 xenografts.

[3] = system: IFNE1 gene expression in HCT116 xenografts; test: Real Time Quantitative Reverse Transcriptase PCR of IFNE1 in HCT116 xenografts; format: in vivo, SCID mice; conditions: normalized to actin
Experimental: as §1, §2
IFNE1 expression in tumor tissues, after exposure to P276-00 or Flavopiridol, was further validated by RTQ-PCR. The primer sequences used for PCR analysis are as follows:
The actin (ACTB) gene is used as control for relative quantification, and the following primer sequences were used for its PCR analysis:
An aliquot of the RNA samples used for the microarray study was also used for Quantitative Real Time Reverse TRasncriptase PCR (QRT-PCR) analysis. […]

[4] = system: IFNE1 mRNA in HL-60 cells; test: QRT-PCR of IFNE1 level in HL-60 cells treated with P276-00 or Flavopiridol; format: cell-based, human; conditions: at most time points (3, 6, 12, 24 hours)
Experimental: (§3) FIGS. 3A, 3B and 3C show expression of IFNE1 in different cancer cell lines treated with P276-00 and Flavopiridol. The different cell lines were treated with the agent for the indicated times and the level of IFNE1 mRNA were estimated using Real Time RT-PCR. Using the Actin gene for normalization, IFNE1 expression level was plotted as log fold change relative to the signal from the control untreated cells.
(§4) The expression of IFNE1 in response to P276-00 or Flavopiridol was also studied in different cancer cell lines such as HCT116, HL-60 (leukemia) and Calu-1. HCT116, Calu-1, H460 and HL-60 cells were obtained from ATCC and were maintained in culture medium with 10% fetal bovine serum. P276-00 and Flavopiridol were synthesized in-house and 10 mM stocks in DMSO were used for the assays. HCT116 (FIG. 3A) cells in culture were treated with P276-00 and Flavopiridol at 200 nM and 250 nM respectively for 6 hours, 12 hours and 24 hours. HL-60 (FIG. 3B) cells were treated with 300 nM of P276-00 and […] of Flavopiridol for 3 hours, 6 hours, 12 hours and 24 hours and Calu-1 (FIG. 3C) cells were treated with 1.2 μM of P276-00 and 450 nM of Flavopiridol for 4 hours, 8 hours, 12 hours, 24 hours and 48 hours. RNA was prepared from the samples and QRT-PCR was performed to estimate level of IFNE1.

[5] = system: IFNE1 mRNA in Calu-1 cells; test: QRT-PCR of IFNE1 level in Calu-1 cells treated with P276-00 or Flavopiridol; format: cell-based, human; conditions: at most time points (4, 8, 12, 24, 48 hours)
Experimental: as §3, §4

[6] = system: IFNE1 mRNA in HCT116 cells; test: QRT-PCR of IFNE1 level in HCT116 cells treated with P276-00 or Flavopiridol; format: cell-based, human; conditions: for IFNE1 level relative to control untreated cells: at most time points (6, 12, 24 hours)
Experimental: as §3, §4

## O=C1c2ccccc2-[n+]2ccc3c([nH]c4ccccc43)c21 [Fascaplysin]
[1]
  change of IFNE1 mRNA level: upregulation

## CC[C@H](CO)Nc1nc(NCc2ccccc2)c2ncn(C(C)C)c2n1 [Roscovitine]
[1]
  change of IFNE1 mRNA level: upregulation; also recorded: potentiated IFNE1 level maximally

## CC[C@@]1(O)C(=O)OCc2c1cc1n(c2=O)Cc2cc3ccccc3nc2-1 [Camptothecin]
[1]
  change of IFNE1 mRNA level: do not cause a change

## CN1CC[C@H](c2c(O)cc(O)c3c(=O)cc(-c4ccccc4Cl)oc23)[C@H](O)C1 [Flavopiridol]
[2]; acute treatment, xenograft A3, Flavopiridol 2.5 mg/kg, log base 2 vs pooled control
  log of median of ratio for IFNE1 gene: 2.017
[2]; acute treatment, xenograft A6, Flavopiridol 2.5 mg/kg, log base 2 vs pooled control
  log of median of ratio for IFNE1 gene: 1.121
[2]; acute treatment, xenograft A9, Flavopiridol 2.5 mg/kg, log base 2 vs pooled control
  log of median of ratio for IFNE1 gene: 1.568
[2]; acute treatment, xenograft A15, Flavopiridol 2.5 mg/kg, log base 2 vs pooled control
  log of median of ratio for IFNE1 gene: 1.228
[2]; acute treatment, xenograft A22, Flavopiridol 2.5 mg/kg, log base 2 vs pooled control
  log of median of ratio for IFNE1 gene: 1.17
[2]; chronic treatment, xenograft C6, Flavopiridol, log base 2 vs pooled control
  log of median of ratio for IFNE1 gene: 2.731
[2]; chronic treatment, xenograft C9, Flavopiridol, log base 2 vs pooled control
  log of median of ratio for IFNE1 gene: 1.723
[2]; chronic treatment, xenograft C15, Flavopiridol, log base 2 vs pooled control
  log of median of ratio for IFNE1 gene: 1.595
[3]; acute or chronic not distinguished
  xenografts with IFNE1 up-regulation by QRT-PCR: most of the xenografts tested
[4]
  IFNE1 level relative to control untreated cells: significant increase
[5]
  IFNE1 level relative to control untreated cells: significant increase
[6]; 12 hours, normalized to Actin
  IFNE1 up-regulation, log fold change relative to control untreated cells: up to 7 log fold changes
[6]
  IFNE1 level relative to control untreated cells: significant increase
[1]
  change of IFNE1 mRNA level: upregulation

## COc1cc([C@@H]2c3cc4c(cc3[C@@H](O[C@@H]3O[C@@H]5CO[C@@H](C)O[C@H]5[C@H](O)[C@H]3O)[C@H]3COC(=O)[C@H]23)OCO4)cc(OC)c1O [Etoposide]
[1]
  change of IFNE1 mRNA level: do not cause a change

## O=c1c(O)c(-c2ccc(O)c(O)c2)oc2cc(O)cc(O)c12 [Quercitin]
[1]
  change of IFNE1 mRNA level: do not cause a change

## CC(=O)O[C@H]1C(=O)[C@@]2(C)[C@H]([C@H](OC(=O)c3ccccc3)[C@]3(O)C[C@H](OC(=O)[C@H](O)[C@@H](NC(=O)c4ccccc4)c4ccccc4)C(C)=C1C3(C)C)[C@]1(OC(C)=O)CO[C@@H]1C[C@@H]2O [Paclitaxel]
[1]
  change of IFNE1 mRNA level: do not cause a change

## CC[C@]1(O)C[C@@H]2CN(CCc3c([nH]c4ccccc34)[C@@](C(=O)OC)(c3cc4c(cc3OC)N(C)[C@H]3[C@@](O)(C(=O)OC)[C@H](OC(C)=O)[C@]5(CC)C=CCN6CC[C@]43[C@@H]65)C2)C1 [Vinblastin]
[1]
  change of IFNE1 mRNA level: do not cause a change

## COc1cccc2c1C(=O)c1c(O)c3c(c(O)c1C2=O)C[C@@](O)(C(=O)CO)C[C@@H]3O[C@H]1C[C@H](N)[C@H](O)[C@H](C)O1 [Doxorubicin]
[1]
  change of IFNE1 mRNA level: do not cause a change

## O=c1[nH]cc(F)c(=O)[nH]1 [5-Fluorouracil]
[1]
  change of IFNE1 mRNA level: do not cause a change

## CN1CC[C@@H](c2c(O)cc(O)c3c(=O)cc(-c4ccccc4Cl)oc23)[C@@H]1CO.Cl [Compound P276-00, (+)-trans-2-(2-Chloro-phenyl)-5,7-dihydroxy-8-(2-hydroxymethyl-1-methyl-pyrrolidin-3-yl)-chromen-4-one hydrochloride]
[2]; acute treatment (two consecutive days), xenograft A20, P276-00 35 mg/kg, log base 2 of Cy5/Cy3 vs pooled control
  log of median of ratio for IFNE1 gene: 2.26
[2]; acute treatment, xenograft A2, P276-00 35 mg/kg, log base 2 vs pooled control
  log of median of ratio for IFNE1 gene: 1.107
[2]; acute treatment, xenograft A5, P276-00 35 mg/kg, log base 2 vs pooled control
  log of median of ratio for IFNE1 gene: 1.966
[2]; acute treatment, xenograft A11, P276-00 35 mg/kg, log base 2 vs pooled control
  log of median of ratio for IFNE1 gene: 2.053
[2]; acute treatment, xenograft A23, P276-00 35 mg/kg, log base 2 vs pooled control
  log of median of ratio for IFNE1 gene: 3.252
[2]; chronic treatment (6-7 days consecutively), xenograft C17, P276-00, log base 2 vs pooled control
  log of median of ratio for IFNE1 gene: 0.7715
[2]; chronic treatment, xenograft C11, P276-00, log base 2 vs pooled control
  log of median of ratio for IFNE1 gene: 1.318
[2]; chronic treatment, xenograft C23, P276-00, log base 2 vs pooled control
  log of median of ratio for IFNE1 gene: 1.326
[3]; acute treatment
  xenografts with upregulated IFNE1 level by QRT-PCR: 3 of the 6
[3]; chronic treatment
  xenografts with upregulated IFNE1 level by QRT-PCR: most of the xenografts tested
[4]
  IFNE1 level relative to control untreated cells: significant increase
[5]
  IFNE1 level relative to control untreated cells: significant increase
[6]
  IFNE1 level relative to control untreated cells: significant increase
[1]
  change of IFNE1 mRNA level: upregulation

## OC[C@H]1O[C@@H](n2cnc3cc(Cl)c(Cl)cc32)[C@H](O)[C@@H]1O [DRB, 5,6-dichloro-1-beta-D-ribofuranosylbenzimidazole]
[1]
  change of IFNE1 mRNA level: upregulation
